Data from ChEMBL document CHEMBL5608173, “Discovery of novel natural-product-derived mutant isocitrate dehydrogenases 1 inhibitors: Structure-based virtual screening, biological evaluation and structure-activity relationship study” (Eur J Med Chem, 2024).
Active and inactive are the calls of the source. The rule behind the calls is not given here.

How the values were obtained:
[1] = test system: Isocitrate dehydrogenase [NADP] cytoplasmic (Homo sapiens), O75874 [R132C]; test: Inhibition of recombinant human IDH1 R132C mutant extracted from Escherichia coli BL21 (DE3) cells using alpha-ketoglutarate as substrate at 2 uM incubated for 60 mins in presence of NADPH by absorbance based assay relative to control
Isocitrate dehydrogenase [NADP] cytoplasmic (Homo sapiens), O75874 [R132C], sequence (O75874 whole entry R132C): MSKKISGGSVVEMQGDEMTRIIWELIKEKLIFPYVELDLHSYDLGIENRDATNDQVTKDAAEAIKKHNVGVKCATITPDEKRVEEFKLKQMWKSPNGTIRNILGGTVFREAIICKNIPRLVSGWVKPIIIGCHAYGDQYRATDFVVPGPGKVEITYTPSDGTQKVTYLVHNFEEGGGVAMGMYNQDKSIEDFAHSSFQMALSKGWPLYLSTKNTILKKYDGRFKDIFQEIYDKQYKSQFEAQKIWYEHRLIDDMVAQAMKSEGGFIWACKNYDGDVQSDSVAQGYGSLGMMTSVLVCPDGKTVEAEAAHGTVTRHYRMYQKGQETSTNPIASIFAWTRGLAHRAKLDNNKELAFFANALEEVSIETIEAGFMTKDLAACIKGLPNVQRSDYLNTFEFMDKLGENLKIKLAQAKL

[2] = test system: Isocitrate dehydrogenase [NADP] cytoplasmic (Homo sapiens), O75874 [R132H]; test: Inhibition of recombinant human IDH1 R132H mutant extracted from Escherichia coli BL21 (DE3) cells using alpha-ketoglutarate as substrate at 0.2 uM incubated for 60 mins in presence of NADPH by absorbance based assay relative to control
Isocitrate dehydrogenase [NADP] cytoplasmic (Homo sapiens), O75874 [R132H], sequence (O75874 whole entry R132H): as the sequence (O75874 whole entry R132C) above, with C132H counted along it

[3] = test system: Isocitrate dehydrogenase [NADP] cytoplasmic (Homo sapiens), O75874 [R132H]; test: Inhibition of recombinant human IDH1 R132H mutant extracted from Escherichia coli BL21 (DE3) cells using alpha-ketoglutarate as substrate at 2 uM incubated for 60 mins in presence of NADPH by absorbance based assay relative to control
[4] = test system: Isocitrate dehydrogenase [NADP] cytoplasmic (Homo sapiens), O75874 [R132C]; test: Inhibition of recombinant human IDH1 R132C mutant extracted from Escherichia coli BL21 (DE3) cells using alpha-ketoglutarate as substrate at 0.2 uM incubated for 60 mins in presence of NADPH by absorbance based assay relative to control
HT-1080 [5] = test: Antiproliferative activity against human HT-1080 cells harboring IDH1 R132C mutant assessed as reduction in cell viability incubated for 72 hrs by MTT assay; format: functional
U-87 MG [6] = test: Antiproliferative activity against human U-87 MG cells harboring IDH1 R132H mutant assessed as reduction in cell viability incubated for 72 hrs by MTT assay; format: functional, U-87MG ATCC
HT-1080 [7] = test: Antiproliferative activity against human HT-1080 cells harboring IDH1 R132C mutant assessed as reduction in cell viability at 10 uM incubated for 72 hrs by MTT assay; format: functional, cell-based
L02 = test: Cytotoxicity against human L02 cells assessed as inhibition of cell growth at 50 uM; format: toxicity, cell-based; details: l02, 50 µM
U-87 MG [8] = test: Antiproliferative activity against human U-87 MG cells assessed as reduction in cell viability incubated for 72 hrs by MTT assay; format: functional, U-87MG ATCC
[9] = biological target: Isocitrate dehydrogenase [NADP] cytoplasmic (Homo sapiens, UniProt O75874); test: Inhibition of recombinant human wildtype IDH1 extracted from Escherichia coli BL21 (DE3) cells using alpha-ketoglutarate as substrate incubated for 60 mins in presence of NADPH by absorbance based assay
Isocitrate dehydrogenase [NADP] cytoplasmic (Homo sapiens, UniProt O75874), sequence (O75874 whole entry): as the sequence (O75874 whole entry R132C) above, with C132R counted along it

[10] = test system: Isocitrate dehydrogenase [NADP] cytoplasmic (Homo sapiens), O75874 [R132H]; test: Inhibition of IDH1 R132H mutant in human U-87 MG cells assessed as reduction in 2-HG level at 10 uM incubated for 48 hrs in presence of NAD+ by resazurin fluorescence dye based Sigma MAK320-1 assay kit analysis relative to control; format: cell-based
[11] = biological target: T1, Isocitrate dehydrogenase [NADP] cytoplasmic (Homo sapiens, UniProt O75874, R132H); test: Inhibition of IDH1 R132H mutant (unknown origin)
T1 sequence (O75874 2-414 R132H limits assumed): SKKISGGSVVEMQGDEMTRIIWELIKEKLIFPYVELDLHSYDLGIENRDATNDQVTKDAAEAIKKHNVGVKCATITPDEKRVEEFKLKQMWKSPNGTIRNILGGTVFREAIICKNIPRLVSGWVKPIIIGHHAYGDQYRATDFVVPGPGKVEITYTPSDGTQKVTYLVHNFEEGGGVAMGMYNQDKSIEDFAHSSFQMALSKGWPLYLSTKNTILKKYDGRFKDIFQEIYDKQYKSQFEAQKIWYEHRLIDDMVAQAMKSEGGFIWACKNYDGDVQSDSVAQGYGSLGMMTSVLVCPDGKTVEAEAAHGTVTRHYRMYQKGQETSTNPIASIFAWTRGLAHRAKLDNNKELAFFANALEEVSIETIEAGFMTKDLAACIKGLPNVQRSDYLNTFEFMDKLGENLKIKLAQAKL

[12] = biological target: T2, Isocitrate dehydrogenase [NADP] cytoplasmic (Homo sapiens, UniProt O75874, R132C); test: Inhibition of IDH1 R132C mutant (unknown origin)
T2 sequence (O75874 2-414 R132C limits assumed): as the sequence (O75874 2-414 R132H limits assumed) above, with H131C counted along it

[13] = biological target: T2, Isocitrate dehydrogenase [NADP] cytoplasmic; test: Inhibition of IDH1 R132C mutant in human HT-1080 cells assessed as reduction in 2-HG level incubated for 48 hrs in presence of NAD+ by resazurin fluorescence dye based Sigma MAK320-1 assay kit analysis; format: cell-based
[14] = biological target: T2, Isocitrate dehydrogenase [NADP] cytoplasmic; test: Inhibition of recombinant human IDH1 R132C mutant extracted from Escherichia coli BL21 (DE3) cells using alpha-ketoglutarate as substrate incubated for 60 mins in presence of NADPH by absorbance based assay
[15] = biological target: T1, Isocitrate dehydrogenase [NADP] cytoplasmic; test: Inhibition of IDH1 R132H mutant in human U-87 MG cells assessed as reduction in 2-HG level incubated for 48 hrs in presence of NAD+ by resazurin fluorescence dye based Sigma MAK320-1 assay kit analysis; format: cell-based
[16] = biological target: T1, Isocitrate dehydrogenase [NADP] cytoplasmic; test: Inhibition of recombinant human IDH1 R132H mutant extracted from Escherichia coli BL21 (DE3) cells using alpha-ketoglutarate as substrate incubated for 60 mins in presence of NADPH by absorbance based assay

| Structure (SMILES) | inhibition [1] | inhibition [2] | inhibition [3] | inhibition [4] | other results |
| --- | --- | --- | --- | --- | --- |
| COc1cc(O)c(-c2cc(-c3ccc(O)cc3)nc(-c3ccccc3)n2)cc1CC=C(C)C | 96.4% | 27% | 88.5% | 37.7% |  |
| COc1cc(O)c(-c2cc(-c3ccc(O)cc3)nc(-c3nn(Cc4ccccc4F)c4ncccc34)n2)cc1CC=C(C)C | 81.9% | 30.5% | 89.4% | 40.1% |  |
| COc1cc(O)c(-c2cc(-c3ccc(O)cc3)nc(N3CCN(c4ncccn4)CC3)n2)cc1CC=C(C)C | 32.5% | inactive | 37.4% | 10.4% |  |
| COc1cc(OC)c(C(=O)/C=C/c2ccc(O)cc2)cc1CC=C(C)C | inactive | inactive | inactive | inactive |  |
| COc1cc(O)c(-c2cc(-c3ccc(O)cc3)nc(-c3ccccn3)n2)cc1CC=C(C)C | 76.8% | 33.1% | 74% | 22.7% | GC50 (HT-1080 [5]): 850 nM; GC50 (U-87 MG [6]): >20000 nM; Activity (HT-1080 [7]): Active; Activity (L02): Toxic; GC50 (U-87 MG [8]): >20000 nM |
| COc1cc(O)c(-c2cc(-c3ccc(O)cc3)nc(-c3ccncc3)n2)cc1CC=C(C)C | 68.1% | 9.7% | 56.7% | 28.2% | GC50 (HT-1080 [5]): 6000 nM; Activity (HT-1080 [7]): Active; Activity (L02): Toxic |
| COc1cc(O)c(C(=O)/C=C/c2ccc(O)cc2)cc1CC=C(C)C | 46.3% | 14.9% | 54% | inactive | IC50 [9]: > 20000 nM; inhibition [10]: 35.8% |
| CC(Cc1ccc(O)c(O)c1)C(C)Cc1ccc(O)c(O)c1 (stereo unspecified) [NORDIHYDROGUAIARETIC ACID] |  |  | 51.2% |  | IC50 [9]: > 20000 nM; inhibition [10]: < 10% |
| COc1cc(O)c(-c2cc(-c3ccc(O)cc3)nc(C(C)(C)C)n2)cc1CC=C(C)C | 53.1% | 13.5% | 60.4% | 14.7% |  |
| COc1cc(O)c(-c2cc(-c3ccc(O)cc3)nc(C3CCCO3)n2)cc1CC=C(C)C (stereo unspecified) | 70.4% | 14.7% | 60.1% | 13.4% |  |
| COc1cc(O)c(-c2cc(-c3ccc(O)cc3)nc(-c3ncccn3)n2)cc1CC=C(C)C | > 100% | 41.3% | > 100% | 14.6% |  |
| COc1c(C)cc(NC(=O)c2nn(Cc3ccc(F)cc3)c3c2CN(C(=O)c2ccc[nH]2)C[C@]3(C)C(N)=O)cc1C |  |  |  |  | IC50 [11]: 15.2 nM; IC50 [12]: 8.8 nM |
| CCCCc1nc(-c2ccc(O)cc2)cc(-c2cc(CC=C(C)C)c(OC)cc2O)n1 | 41.2% | 7.6% | 51.6% | 10.3% |  |
| COc1cc(O)c(-c2cc(-c3ccc(O)cc3)nc(-c3ccncc3Cl)n2)cc1CC=C(C)C | 74.1% | 10.5% | 95.1% | 14.9% |  |
| COc1ccc(-c2cc(-c3cc(CC=C(C)C)c(OC)cc3OC)nc(-c3ncccn3)n2)cc1 | 92.4% | 12.1% | 87.3% | 24.7% | Activity (L02): Toxic |
| COc1cc(O)c(-c2cc(-c3ccc(O)cc3)nc(N3CCCC3)n2)cc1CC=C(C)C | 84.3% | 5% | 70.2% | 30.9% |  |

| Structure (SMILES) | inhibition [1] | inhibition [2] | inhibition [3] | inhibition [4] | other results |
| --- | --- | --- | --- | --- | --- |
| O=C(/C=C/c1ccc(O)cc1)OC[C@H]1O[C@@H](Oc2c(-c3ccc(O)cc3)oc3cc(O)cc(O)c3c2=O)[C@H](O)[C@@H](O)[C@@H]1O [TILIROSIDE] |  |  | 58.1% |  | IC50 [9]: > 20000 nM; inhibition [10]: < 10% |
| COc1cc(O)c(-c2cc(-c3ccc(O)cc3)ncn2)cc1CC=C(C)C | 58.6% | 13.4% | 47.2% | 17.8% | Activity (L02): Toxic |
| COc1ccc(-c2cc(-c3ccc(O)cc3)nc(-c3ncccn3)n2)c(O)c1 | 97.5% | 73.1% | > 100% | 82% | GC50 (U-87 MG [6]): 6800 nM; EC50 [13]: 279 nM; IC50 [9]: > 20000 nM; IC50 [14]: 78.9 nM; EC50 [15]: 263 nM; Activity (L02): Toxic; GC50 (U-87 MG [8]): >20000 nM; IC50 [16]: 90.2 nM |
| COC(=O)N1CCN(c2nc(-c3ccc(O)cc3)cc(-c3cc(CC=C(C)C)c(OC)cc3O)n2)CC1 | 80.1% | 21.1% | 75.4% | 24.6% |  |
| COc1cc(O)c(-c2cc(-c3ccc(O)cc3)nc(-c3cnccn3)n2)cc1CC=C(C)C | 67.3% | 17.2% | 81.8% | 24.5% |  |
| COc1cc(O)c(-c2cc(-c3ccc(O)cc3)[nH]n2)cc1CC=C(C)C | 29.1% | inactive | 17.5% | 14.2% |  |
| COCOc1ccc(/C=C/C(=O)c2cc(CC=C(C)C)c(OC)cc2O)cc1 | inactive | inactive | inactive | inactive |  |
| COc1cc(O)c(-c2cc(-c3ccc(O)cc3)nc(-c3nccs3)n2)cc1CC=C(C)C | 56.3% | 11.1% | 61.1% | inactive |  |
| COc1cc(O)c(-c2cc(-c3ccc(O)cc3)nc(N3CCCCC3)n2)cc1CC=C(C)C | 89.7% | 9.4% | 93.6% | 11.8% |  |
| COc1cc(O)c(-c2cc(-c3ccc(O)cc3)nc(N)n2)cc1CC=C(C)C | 47.5% | 11.2% | 30.7% | 8.9% |  |
| COCOc1ccc(/C=C/C(=O)c2cc(CC=C(C)C)c(OC)cc2OC)cc1 | inactive | inactive | inactive | inactive |  |
| COc1cc(OC)c(-c2cc(-c3ccc(O)cc3)nc(-c3ncccn3)n2)cc1CC=C(C)C | 81.2% | 33.4% | 91.2% | 11% |  |
| COc1cc(O)c(-c2cc(-c3ccc(O)cc3)nc(-c3cccnc3)n2)cc1CC=C(C)C | 57.9% | 17.7% | 48.3% | 20.3% | Activity (L02): Toxic |
| COc1cc(O)c(-c2cc(-c3ccc(O)cc3)nc(N3CCN(C(C)=O)CC3)n2)cc1CC=C(C)C | 69.4% | 34.7% | 61.2% | 12.8% |  |
| COc1cc(O)c(-c2cc(-c3ccc(O)cc3)nc(C)n2)cc1CC=C(C)C | 67.2% | 13.6% | 49.1% | 12.5% | Activity (L02): Toxic |
| COc1cc(O)c(-c2cc(-c3ccc(O)cc3)nc(N3CCOCC3)n2)cc1CC=C(C)C | 94.6% | 13.8% | 82.1% | 24.1% |  |
